pIC50: −log10 of the molar value.
Tests used:
Type in all cases: biochemical
leucine aminopeptidase = test: Leucine aminopeptidase-inhibitory activity; settings: concentration 0.1 μM; swine kidney, pH 8.0
Method: (§1) Inhibitory activity against various proteases
(§2) The compound of the present invention having predetermined concentrations was tested for the specificity of the inhibitory activity against various proteases according to a known test method.
(§3) The methods for the determination of the inhibitory activity against various proteases other than prolyl endopeptidase and the method for calculating the inhibition are as follows.
Determination of leucine aminopeptidase-inhibitory activity
In completely the same manner as above, respective fluorescence (d1, d2 and d3) was determined using a 50 mM Tris-HCl buffer (pH 8.0) as a buffer for determination, a 0.2 μM solution of leucine aminopeptidase (derived from swine kidney, Sigma) in the same buffer as an enzyme solution and a 200 μM solution of 7-leucyl-4-methyl-coumarinamide (Peptide Institute, Inc.) in the same buffer as a substrate solution.
(§4) Using the fluorescence x1, x2 and x3 wherein x is b, c, d, e or f, measured in the above-mentioned manner, the inhibition against various proteases was calculated by the following formula: [formula]

cathepsin B = molecular target: T1, cathepsin B (Bos taurus, UniProt P07688); test: Cathepsin B-inhibitory activity; settings: concentration 0.1 μM; bovine spleen, pH 6.0
T1 construct: purchased Sigma; host or cells: bovine spleen
Method: as §1, §2, §3
Determination of cathepsin B-inhibitory activity
In completely the same manner as above, respective fluorescence (f1, f2 and f3) was determined using a 100 mM sodium phosphate buffer (pH 6.0; containing 1.33 mM EDTA Na2) as a buffer for determination, a 0.02 μM solution of cathepsin B (derived from bovine spleen, Sigma) in the same buffer as an enzyme solution and a 200 μM solution of 7-(N-benzyloxy-carbonyl-phenylaranyl-arginyl)-4-methylcouma-rinamide (Peptid Institute, Inc.) in the same buffer as a substrate solution.
as §4

chymotrypsin = molecular target: T2, chymotrypsin (Bos taurus, UniProt P00766); test: Chymotrypsin-inhibitory activity; settings: concentration 0.1 μM; bovine pancreas, pH 8.0
T2 construct: purchased Sigma; host or cells: bovine pancreas
Method: as §1, §2, §3
Determination of chymotrypsin-inhibitory activity
In completely the same manner as above, respective fluorescence (c1, c2 and c3) was determined using a 50 mM Tris-HCl buffer (pH 8.0) as a buffer for determination, a 0.2 μM solution of chymotrypsin (derived from bovine pancreas, Sigma) in the same buffer as an enzyme solution, and a 200 μM solution of 7-(N-succinyl-leucyl-leucyl-varyl-tyrosyl)-4-methylcoumarinamide (Peptide Institute, Inc.) in the same buffer as a substrate solution.
as §4

trypsin = molecular target: T3, trypsin (Bos taurus, UniProt P00760); test: Trypsin-inhibitory activity; settings: concentration 0.1 μM; bovine pancreas, pH 8.0
T3 construct: purchased Sigma; host or cells: bovine pancreas
T3 sequence (P00760 24-246): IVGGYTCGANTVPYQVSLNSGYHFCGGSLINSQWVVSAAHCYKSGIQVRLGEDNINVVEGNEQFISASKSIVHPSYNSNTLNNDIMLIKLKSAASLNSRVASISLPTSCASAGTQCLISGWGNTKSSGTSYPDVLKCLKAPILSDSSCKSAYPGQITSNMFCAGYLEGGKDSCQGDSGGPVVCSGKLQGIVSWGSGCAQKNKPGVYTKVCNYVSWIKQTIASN
Method: as §1, §2, §3
Determination of trypsin-inhibitory activity
In the present invention, a 50 mM Tris-HCI buffer (pH 8.0) was used as a buffer for measurement.
To a mixture of the above-mentioned buffer (850 μl ), a solution of the compound of the present invention in the same buffer (50 μl ) and a 0.02 μM solution of trypsin (derived from bovine pancreas, Sigma) in the same buffer (50 μl ) was added a 200 μM solution of 7-(prolyl-phenylaranyl-arginyl)-4methylcoumarinamide (Peptide Institute, Inc.) in the same buffer (50 μl), and the mixture was incubated at 30° C. for 1 hour. The reaction mixture was immersed in ice (0° C.) to terminate the reaction, and the fluorescence (b1) was determined 1 hour later (excitation at 370 nm and emission at 440 nm). Concurrently, an experiment wherein, in the system above, the trypsin solution was substituted for a buffer and an experiment wherein the solution of the compound of the present invention was substituted for said buffer were conducted. Each fluorescence (b2 and b3) was determined.
as §4

elastase = molecular target: T4, elastase (Sus scrofa, UniProt P00772); test: Elastase-inhibitory activity; settings: concentration 0.1 μM; swine pancreas, pH 8.5
T4 construct: purchased Sigma; host or cells: swine pancreas
T4 sequence (P00772 27-266): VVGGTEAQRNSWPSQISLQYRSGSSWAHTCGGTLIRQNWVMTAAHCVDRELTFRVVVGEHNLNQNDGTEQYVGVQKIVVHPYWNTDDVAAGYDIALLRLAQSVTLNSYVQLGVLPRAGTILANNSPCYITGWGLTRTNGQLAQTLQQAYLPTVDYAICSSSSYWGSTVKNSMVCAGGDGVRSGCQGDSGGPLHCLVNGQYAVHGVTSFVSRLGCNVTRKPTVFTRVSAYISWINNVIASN
Method: as §1, §2, §3
Determination of elastase-inhibitory activity
In completely the same manner as above, respective fluorescence (e1, e2 and e3) was determined using a 1 mM Tris-HCl buffer (pH 8.5) as a buffer for determination, a 0.2 μM solution of elastase (derived from swine pancreas, Sigma) in the same buffer as an enzyme solution and a 200 μM solution of 7-(N-succinyl-aranyl-prolyl-aranyl)-4-methylcoumarinamide (Peptide Institute, Inc.) in the same buffer as a substrate solution.
as §4

prolyl endopeptidase = molecular target: T5, prolyl endopeptidase (Rattus norvegicus, UniProt O70196); test: Prolyl endopeptidase-inhibitory activity
T5 construct: prolyl endopeptidase extracted from rat brain; from tissue; host or cells: rat brain
T5 sequence (O70196 1-710): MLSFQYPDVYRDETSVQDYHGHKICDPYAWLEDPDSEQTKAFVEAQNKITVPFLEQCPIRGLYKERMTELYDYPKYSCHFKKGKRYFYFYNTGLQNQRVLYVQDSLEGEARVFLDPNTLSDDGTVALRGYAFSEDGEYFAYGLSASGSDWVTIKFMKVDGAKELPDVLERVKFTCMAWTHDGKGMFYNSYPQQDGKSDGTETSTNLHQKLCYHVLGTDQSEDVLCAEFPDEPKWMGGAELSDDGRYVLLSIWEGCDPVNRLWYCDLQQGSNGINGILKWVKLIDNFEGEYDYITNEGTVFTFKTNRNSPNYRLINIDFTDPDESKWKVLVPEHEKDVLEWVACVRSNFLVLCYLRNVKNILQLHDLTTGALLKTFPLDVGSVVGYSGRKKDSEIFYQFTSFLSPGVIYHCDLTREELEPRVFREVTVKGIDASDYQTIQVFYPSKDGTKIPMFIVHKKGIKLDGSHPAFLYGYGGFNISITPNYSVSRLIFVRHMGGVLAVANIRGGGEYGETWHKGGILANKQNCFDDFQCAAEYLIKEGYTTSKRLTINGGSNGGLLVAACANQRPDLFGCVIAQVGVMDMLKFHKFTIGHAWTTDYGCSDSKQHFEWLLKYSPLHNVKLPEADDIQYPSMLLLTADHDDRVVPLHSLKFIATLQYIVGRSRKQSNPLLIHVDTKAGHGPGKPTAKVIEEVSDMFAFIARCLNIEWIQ
Method: Prolyl endopeptidase-inhibitory activity
A mixture of a 0.1M potassium-sodium phosphate buffer (pH 7.0, 2675 μl ), a solution of the compound of the present invention in a 0.1M potassium-sodium phosphate buffer (pH 7.0, 100 μl ) and a solution of prolyl endopeptidase extracted from rat brain in a 25 mM sodium phosphate buffer (100 μl ) [123 unit/1, pH 6.8, containing 1 mM dithiothreitol and 0.5 mM EDTA, prepared by the method described in J. Neurochem., 35, 527 (1980)] was preincubated at 30° C. for 30 minutes. Thereto was added a 0.2 mM solution of 7-(N-succinyl-glycyl-prolyl)-4methylcoumarinamide (Peptide Institute, INC.) in a 0.1M potassium-sodium phosphate buffer (pH 7.0, 125 μl), and the mixture was incubated at 30° C. for 1 hour. The reaction mixture was immersed in ice (0° C.) to terminate the reaction, and the fluorescence (a1) was determined ten minutes later (excitation at 370 nm and emission at 440 nm). Concurrently, an experiment wherein, in the above system, the prolyl endopeptidase solution was substituted for a 25 mM sodium phosphate buffer (pH 6.8, containing 1 mM dithiothreitol and 0.5 mM EDTA) and an experiment wherein the solution of the compound of the present invention was substituted for a 0.1M potassium-sodium phosphate buffer (pH 7.0) were conducted. Each fluorescence (a2 and a3) was determined [See Tanpakushitsu Kakusan Koso, 29, 127 (1984)]. The prolyl endopeptidase inhibition was calculated by the following formula, and IC50, a concentration necessary for 50% inhibition, was estimated by using a semilogarithmic graph paper. [formula]

**Q.** With COc1ccc(CNC(=O)N2CCC[C@H]2C(=O)N2CCC[C@H]2C(=O)CO)cc1 [Compound 6, (S)-2-[[(S)-2-(Hydroxyacetyl)-1-pyrrolidinyl]carbonyl]-N-[(4methoxyphenyl)methyl]-1-pyrrolidinecarboxamide] as the compound, how does the inhibition of leucine aminopeptidase (leucine aminopeptidase) read?
**A.** The inhibition of leucine aminopeptidase was 0%.

**Q.** And the inhibition at 0.1 µM (cathepsin B)?
**A.** The inhibition at 0.1 µM was 0%.

**Q.** What about the inhibition at 0.1 µM (chymotrypsin) of the same compound?
**A.** Its inhibition at 0.1 µM is 0%.

**Q.** And the inhibition at 0.1 µM (trypsin)?
**A.** Its inhibition at 0.1 µM is 0%.

**Q.** And the inhibition at 0.1 µM (elastase)?
**A.** Its inhibition at 0.1 µM is 0%.

**Q.** And the pIC50 (prolyl endopeptidase)?
**A.** Its pIC50 is 9.15.

**Q.** What about the inhibition at 0.1 µM (prolyl endopeptidase; read-out: inhibition of prolyl endopeptidase) of the same compound?
**A.** Its inhibition at 0.1 µM is 100%.
